PubChem BioAssay (NCI)
“And” between values parts separate entries of the source, which are not always exact repeats. Equal entries are not always repeated.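 GI50 = concentration required for 50% inhibition of growth. Definition used: TGI = concentration required for complete inhibition of growth.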

Columns and labels:
Test in all cases: NCI-60 cell line screen, 384-well format
SR leukemia = system: SR leukemia
SF-295 CNS = system: SF-295 CNS
COLO 205 colon = system: COLO 205 colon
UACC-62 melanoma = system: UACC-62 melanoma
MDA-MB-231 breast = system: MDA-MB-231 breast
U251 glioblastoma = system: U251 glioblastoma
MCF7 breast = system: MCF7 breast
KM12 colon = system: KM12 colon
SF-268 CNS = system: SF-268 CNS
HCT-15 colon = system: HCT-15 colon
HL-60(TB) leukemia = system: HL-60(TB) leukemia
MALME-3M melanoma = system: MALME-3M melanoma
NCI-H460 NSCLC = system: NCI-H460 NSCLC
M14 melanoma = system: M14 melanoma
SK-MEL-5 melanoma = system: SK-MEL-5 melanoma
SF-539 CNS = system: SF-539 CNS
HCT-116 colon = system: HCT-116 colon
TK-10 renal = system: TK-10 renal
OVCAR-4 ovarian = system: OVCAR-4 ovarian
SNB-19 CNS = system: SNB-19 CNS
ACHN renal = system: ACHN renal
A498 renal = system: A498 renal
RXF 393 renal = system: RXF 393 renal
SK-MEL-28 melanoma = system: SK-MEL-28 melanoma
HCC-2998 colon = system: HCC-2998 colon
MDA-MB-435 melanoma = system: MDA-MB-435 melanoma
PC-3 prostate = system: PC-3 prostate
NCI/ADR-RES ovarian = system: NCI/ADR-RES ovarian
OVCAR-5 ovarian = system: OVCAR-5 ovarian
NCI-H23 lung = system: NCI-H23 lung
CAKI-1 renal = system: CAKI-1 renal
HOP-62 NSCLC = system: HOP-62 NSCLC
NCI-H322M lung = system: NCI-H322M lung
SK-OV-3 ovarian = system: SK-OV-3 ovarian
SN12C renal = system: SN12C renal
BT-549 breast = system: BT-549 breast
EKVX NSCLC = system: EKVX NSCLC
SNB-75 CNS = system: SNB-75 CNS
MDA-MB-468 breast = system: MDA-MB-468 breast
UACC-257 melanoma = system: UACC-257 melanoma
HT29 colon = system: HT29 colon
OVCAR-8 ovarian = system: OVCAR-8 ovarian
A549 NSCLC = system: A549 NSCLC
OVCAR-3 ovarian = system: OVCAR-3 ovarian
MOLT-4 leukemia = system: MOLT-4 leukemia
RPMI-8226 leukemia = system: RPMI-8226 leukemia
IGROV1 ovarian = system: IGROV1 ovarian
NCI-H226 lung = system: NCI-H226 lung
T-47D breast = system: T-47D breast
HS 578T breast = system: HS 578T breast
HOP-92 NSCLC = system: HOP-92 NSCLC
NCI-H522 lung = system: NCI-H522 lung
LOX IMVI melanoma = system: LOX IMVI melanoma
DU-145 prostate = system: DU-145 prostate

CON(C)C(=O)N1N=C(c2cc(F)ccc2F)SC1(CCCN)c1ccccc1 (stereo not drawn)
GI50 (SR leukemia): < 10 nM | TGI (SR leukemia): < 10 nM | GI50 (SF-295 CNS): < 10 nM | TGI (SF-295 CNS): 12.8 µM and 13.1 µM | GI50 (COLO 205 colon): < 10 nM | TGI (COLO 205 colon): < 10 nM | GI50 (UACC-62 melanoma): < 10 nM | TGI (UACC-62 melanoma): 16.4 µM and 16.1 µM | GI50 (MDA-MB-231 breast): < 10 nM | TGI (MDA-MB-231 breast): 13.8 µM and 15.4 µM | GI50 (U251 glioblastoma): < 10 nM | TGI (U251 glioblastoma): 10.9 µM and 11.2 µM | GI50 (MCF7 breast): < 10 nM | TGI (MCF7 breast): 11.9 µM and 12.1 µM | GI50 (KM12 colon): < 10 nM | TGI (KM12 colon): 12.1 µM and 11.9 µM | GI50 (SF-268 CNS): < 10 nM | TGI (SF-268 CNS): 15.7 µM and 15.3 µM | GI50 (HCT-15 colon): < 10 nM | TGI (HCT-15 colon): 11.7 µM | GI50 (HL-60(TB) leukemia): < 10 nM | TGI (HL-60(TB) leukemia): < 10 nM | GI50 (MALME-3M melanoma): 1190 nM and 1260 nM | TGI (MALME-3M melanoma): 3.53 µM and 11.8 µM | GI50 (NCI-H460 NSCLC): < 10 nM | TGI (NCI-H460 NSCLC): < 10 nM | GI50 (M14 melanoma): < 10 nM | TGI (M14 melanoma): < 10 nM | GI50 (SK-MEL-5 melanoma): < 10 nM | TGI (SK-MEL-5 melanoma): < 10 nM | GI50 (SF-539 CNS): < 10 nM | TGI (SF-539 CNS): 10.2 µM | GI50 (HCT-116 colon): < 10 nM | TGI (HCT-116 colon): 11.2 µM and 11.4 µM | GI50 (TK-10 renal): 11.7 nM | TGI (TK-10 renal): 17.4 µM | GI50 (OVCAR-4 ovarian): < 10 nM | TGI (OVCAR-4 ovarian): 14 µM and 12.6 µM | GI50 (SNB-19 CNS): < 10 nM | TGI (SNB-19 CNS): 11.7 µM and 7.12 µM | GI50 (ACHN renal): 11.2 µM and 1.63 µM | TGI (ACHN renal): 23.3 µM and 19.6 µM | GI50 (A498 renal): < 10 nM | TGI (A498 renal): 14.5 µM and 13.2 µM | GI50 (RXF 393 renal): < 10 nM | TGI (RXF 393 renal): 17.9 µM and 17.8 µM | GI50 (SK-MEL-28 melanoma): 2.38 µM and 11.6 µM | TGI (SK-MEL-28 melanoma): 19.6 µM and 24 µM | GI50 (HCC-2998 colon): < 10 nM | TGI (HCC-2998 colon): < 10 nM | GI50 (MDA-MB-435 melanoma): < 10 nM | TGI (MDA-MB-435 melanoma): < 10 nM | GI50 (PC-3 prostate): < 10 nM | TGI (PC-3 prostate): 15.3 µM and 12.8 µM | GI50 (NCI/ADR-RES ovarian): 116 nM and 17.5 nM | TGI (NCI/ADR-RES ovarian): 270 nM and 137 nM | GI50 (OVCAR-5 ovarian): 10.6 nM and < 10 nM | TGI (OVCAR-5 ovarian): 84.2 nM and < 10 nM | GI50 (NCI-H23 lung): < 10 nM | TGI (NCI-H23 lung): 12.7 µM and 11.5 µM | GI50 (CAKI-1 renal): 2260 nM and 2080 nM | TGI (CAKI-1 renal): 19.2 µM and 19.3 µM | GI50 (HOP-62 NSCLC): < 10 nM | TGI (HOP-62 NSCLC): 14.5 µM and 13.8 µM | GI50 (NCI-H322M lung): < 10 nM | TGI (NCI-H322M lung): 17.2 µM and 14.9 µM | GI50 (SK-OV-3 ovarian): < 10 nM | TGI (SK-OV-3 ovarian): 12.2 µM and 11.9 µM | GI50 (SN12C renal): < 10 nM | TGI (SN12C renal): 14.7 µM and 16.6 µM | GI50 (BT-549 breast): < 10 nM | TGI (BT-549 breast): 11.9 µM and 11.1 µM | GI50 (EKVX NSCLC): < 10 nM | TGI (EKVX NSCLC): 15.6 µM and 14.8 µM | GI50 (SNB-75 CNS): < 10 nM | TGI (SNB-75 CNS): 16 µM and 15.9 µM | GI50 (MDA-MB-468 breast): < 10 nM | TGI (MDA-MB-468 breast): < 10 nM | GI50 (UACC-257 melanoma): < 10 nM | TGI (UACC-257 melanoma): 2290 nM and 2470 nM | GI50 (HT29 colon): < 10 nM | TGI (HT29 colon): 1150 nM and 1310 nM | GI50 (OVCAR-8 ovarian): < 10 nM | TGI (OVCAR-8 ovarian): 14.5 µM and 13.4 µM | GI50 (A549 NSCLC): < 10 nM | TGI (A549 NSCLC): 18.6 µM and 18.7 µM | GI50 (OVCAR-3 ovarian): < 10 nM | TGI (OVCAR-3 ovarian): < 10 nM | GI50 (MOLT-4 leukemia): < 10 nM | TGI (MOLT-4 leukemia): < 10 nM | GI50 (RPMI-8226 leukemia): < 10 nM | TGI (RPMI-8226 leukemia): < 10 nM | GI50 (IGROV1 ovarian): 1840 nM and 1130 nM | TGI (IGROV1 ovarian): 18.8 µM and 14.7 µM | GI50 (NCI-H226 lung): 10.2 µM and 2.24 µM | TGI (NCI-H226 lung): 22 µM and 16.9 µM | GI50 (T-47D breast): 13.8 nM and < 10 nM | TGI (T-47D breast): 18.3 µM and 18.1 µM | GI50 (HS 578T breast): < 10 nM | TGI (HS 578T breast): < 10 nM | GI50 (HOP-92 NSCLC): 10.1 µM and 8.95 µM | TGI (HOP-92 NSCLC): 21.8 µM and 21.6 µM | GI50 (NCI-H522 lung): < 10 nM | TGI (NCI-H522 lung): < 10 nM | GI50 (LOX IMVI melanoma): < 10 nM | TGI (LOX IMVI melanoma): 10.5 µM and 11.1 µM | GI50 (DU-145 prostate): < 10 nM | TGI (DU-145 prostate): < 10 nM
